# Structures can show the parent of a compound that is named as a salt.
# Experiments:
# [1] = Stability of cyclodextrin derivatives in solution / on storage (hydrolysis); assay type: physicochemical
# [2] = Solubility of amino cyclodextrins compared with unsubstituted cyclodextrin; assay type: physicochemical; details: water or other aqueous-based media
# Source text: Solubility--refers to solution in water or other aqueous-based media.
SMILES,stability in solution [1],solubility [2],hydrolysis ([1]; general / in water / during purification)
"[N-]=[N+]=NC[C@H]1O[C@@H]2O[C@H]3[C@H](O)[C@@H](O)[C@@H](O[C@H]4[C@H](O)[C@@H](O)[C@@H](O[C@H]5[C@H](O)[C@@H](O)[C@@H](O[C@H]6[C@H](O)[C@@H](O)[C@@H](O[C@H]7[C@H](O)[C@@H](O)[C@@H](O[C@H]1[C@H](O)[C@H]2O)O[C@@H]7CO)O[C@@H]6CO)O[C@@H]5CO)O[C@@H]4CO)O[C@@H]3CO [6-Axido-6-Deoxy-α-Cyclodextrin, 6^A -Azido-6^A -deoxy-α-cyclodextrin]",not very stable in solution,–,–
NC[C@H]1O[C@@H]2O[C@H]3[C@H](O)[C@@H](O)[C@@H](O[C@H]4[C@H](O)[C@@H](O)[C@@H](O[C@H]5[C@H](O)[C@@H](O)[C@@H](O[C@H]6[C@H](O)[C@@H](O)[C@@H](O[C@H]7[C@H](O)[C@@H](O)[C@@H](O[C@H]8[C@H](O)[C@@H](O)[C@@H](O[C@H]1[C@H](O)[C@H]2O)O[C@@H]8CO)O[C@@H]7CO)O[C@@H]6CO)O[C@@H]5CO)O[C@@H]4CO)O[C@@H]3CO [6^A -amino-6^A -deoxy-β-cyclodextrin hydrochloride salt],–,greater than 20 g/100 ml,–
"NC[C@H]1O[C@@H]2O[C@H]3[C@H](O)[C@@H](O)[C@@H](O[C@H]4[C@H](O)[C@@H](O)[C@@H](O[C@H]5[C@H](O)[C@@H](O)[C@@H](O[C@H]6[C@H](O)[C@@H](O)[C@@H](O[C@H]7[C@H](O)[C@@H](O)[C@@H](O[C@H]8[C@H](O)[C@@H](O)[C@@H](O[C@H]1[C@H](O)[C@H]2O)O[C@@H]8CO)O[C@@H]7CO)O[C@@H]6CO)O[C@@H]5CO)O[C@@H]4CO)O[C@@H]3CO [6^A -amino-6^A -deoxy-β-cyclodextrin, 6^A -Amino-6^A -deoxy-β-cyclodextrin]",not stable in solution,about 4.8 g/100 ml,–
"CC(=O)O[C@H]1[C@H]2O[C@H]3[C@H](O)[C@@H](O)[C@@H](O[C@H]4[C@H](O)[C@@H](O)[C@@H](O[C@H]5[C@H](O)[C@@H](O)[C@@H](O[C@H]6[C@H](O)[C@@H](O)[C@@H](O[C@H]7[C@H](O)[C@@H](O)[C@@H](O[C@@H]([C@@H]1O)[C@@H](CO)O2)O[C@@H]7CO)O[C@@H]6CO)O[C@@H]5CO)O[C@@H]4CO)O[C@@H]3CO [α-2CDOAc, 2^A -O-Acetyl-α-cyclodextrin]",–,–,total purification could not be achieved due to hydrolysis of the product

# — patent US5324750A, “Compositions and methods for drug delivery and chromatography” (priority 1988, dated 1994)
